Active and inactive are the calls of the source.
Key:
[1] = tested on: Streptococcus sp. 'group A'; assay: Streptococcus pyogenes SK(-)GAS viability under kanamycin – luminescence, BacTiterGlo, confirmation, counter-screen for streptokinase expression inhibitor project, dose response (AID 1900); type: functional, organism-based
Streptococcus = assay: GAS UMAA2166 growth inhibition – luminescence, BacTiterGlo, counter-screen for streptokinase expression inhibitor project, dose response (AID 1915); type: functional, organism-based;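 note: potency for reduction of bacterial viability or growth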
Streptokinase A = target: T1, Streptokinase A (Streptococcus pyogenes serotype M1, UniProt P10520); assay: viability-normalized secreted streptokinase activity reduction – plasminogen activation absorbance, OD405, dose response (AID 1914); type: functional, Streptococcus pyogenes M1 GAS;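 note: secreted streptokinase activity via plasminogen activation per viability signal from cell pellet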
T1 sequence (P10520 whole entry): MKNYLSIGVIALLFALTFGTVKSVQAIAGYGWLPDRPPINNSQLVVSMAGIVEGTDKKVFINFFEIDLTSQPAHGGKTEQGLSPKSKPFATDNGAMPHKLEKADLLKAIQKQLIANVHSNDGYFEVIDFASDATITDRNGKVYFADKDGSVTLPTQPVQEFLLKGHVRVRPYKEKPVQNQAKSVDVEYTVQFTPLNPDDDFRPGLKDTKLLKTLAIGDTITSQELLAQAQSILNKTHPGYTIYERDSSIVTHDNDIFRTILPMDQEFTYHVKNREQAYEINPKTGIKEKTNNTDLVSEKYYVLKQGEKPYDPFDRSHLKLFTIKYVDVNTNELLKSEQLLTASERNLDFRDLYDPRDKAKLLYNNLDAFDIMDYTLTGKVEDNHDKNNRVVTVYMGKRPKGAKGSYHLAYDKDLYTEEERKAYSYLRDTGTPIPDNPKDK

[2] = NIH3T3 cell viability loss – ATP luminescence, mouse fibroblasts, counter-screen, dose response (AID 2010); type: functional, cell-based;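 note: cells exposed to compound for about 90 hours before reading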
[3] = Trypanosoma cruzi growth suppression in host cells – NIH3T3 host cells, beta-gal luminescence, confirmation (AID 2044); type: functional, cell-based;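 note: intracellular parasites grown in NIH/3T3 mouse fibroblasts as host cells; luminescent beta-galactosidase reporter signal from transgenic T. cruzi replicating inside host cells; inhibitors lower the luminescence signal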
Cytochrome P450 2C19 = Cytochrome P450 2C19 (Homo sapiens, UniProt P33261); assay: Cytochrome panel assay with activity outcomes. Panel member name: p450-cyp2c19 Compounds with AC50 equal or less than 10 uM are considered active; type: functional
Cytochrome P450 2C19, sequence (P33261 whole entry): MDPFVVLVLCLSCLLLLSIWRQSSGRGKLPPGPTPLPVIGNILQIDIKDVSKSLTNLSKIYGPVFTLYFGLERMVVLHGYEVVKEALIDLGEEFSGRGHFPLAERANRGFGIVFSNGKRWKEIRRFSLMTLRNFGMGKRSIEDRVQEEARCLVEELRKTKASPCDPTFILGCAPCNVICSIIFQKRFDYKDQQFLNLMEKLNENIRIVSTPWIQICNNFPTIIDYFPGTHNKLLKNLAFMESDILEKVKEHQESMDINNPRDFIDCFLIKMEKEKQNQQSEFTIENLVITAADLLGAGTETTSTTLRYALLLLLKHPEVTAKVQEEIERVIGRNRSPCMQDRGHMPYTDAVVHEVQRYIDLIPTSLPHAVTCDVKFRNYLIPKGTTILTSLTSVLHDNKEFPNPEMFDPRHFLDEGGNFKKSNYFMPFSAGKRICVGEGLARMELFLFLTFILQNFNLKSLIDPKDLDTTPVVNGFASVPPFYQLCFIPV

SMILES	EC50 [1]	EC50 (Streptococcus)	EC50 (Streptokinase A)	EC50 [2]	EC50 [3]	also measured
CCOc1ccc(C(=O)NC(=S)Nc2ccc(N3CCOCC3)c(Cl)c2)cc1[N+](=O)[O-]	0.724 µM (active)	21.4 µM (active)	> 150 µM (not active)	–	–	–
CN(CCc1ccccn1)C1CCCN(S(=O)(=O)c2ccc(F)c(Cl)c2)C1 (centres undefined)	–	–	–	> 60 µM (not active)	1.2 µM (active)	–
C[C@@H](C(=O)NCCc1ccccc1)N1C(=O)N2CCc3c([nH]c4ccccc34)[C@@]2(C)C1=O	–	–	–	> 60 µM (not active)	2 µM (active)	–
Cc1cc(=O)oc2cc(O)c(CN(C)CC(=O)O)cc12	–	–	–	–	–	AC50 (Cytochrome P450 2C19): inconclusive
Cc1nn2c(O)cc(C(C)(C)C)nc2c1-c1ccccc1	2.71 µM (active)	6.75 µM (active)	–	4.17 µM (active)	1.85 µM (active)	–
NC(=O)NC(=O)CSc1nc2cc([N+](=O)[O-])ccc2n1-c1cccc(C(F)(F)F)c1	0.301 µM (active)	19.2 µM (active)	> 150 µM (not active)	–	–	–
Cc1c(C(=O)Nc2ccc(-c3nnc4n3CCCCC4)cc2)oc2ccc(Br)cc12	–	–	–	> 60 µM (not active)	1.18 µM (active)	–
CC(=O)c1ccc(NC(=O)CN2C(=O)/C(=C/C=C/c3ccccc3)SC2=S)cc1	–	> 150 µM (not active)	> 150 µM (not active)	–	–	–
CC(=O)N1c2ccc(S(=O)(=O)N3CCC(C(=O)Nc4cc(C)ccn4)CC3)cc2CC1C (centres undefined)	> 150 µM (not active)	> 150 µM (not active)	> 150 µM (not active)	–	–	–
CC(C)C(=O)NC(=S)Nc1ccccc1N1CCN(C(=O)c2ccc(Cl)cc2)CC1	–	–	–	> 60 µM (not active)	1.47 µM (active)	–
C=CCN1C(=O)NC(=O)/C(=C(/C)Nc2ccc(N(CC)CC)cc2)C1=O	5.15 µM (active)	14 µM (active)	> 150 µM (not active)	–	–	–
CCCCN1C(=O)NC(=O)/C(=C(/CC)Nc2ccc3c(c2)CCC3)C1=O	15.9 µM (active)	> 150 µM (not active)	74.1 µM (active)	–	–	–
CCc1ccc(N(CC(=O)NC2CC2)S(=O)(=O)c2ccc(C)cc2)cc1	> 150 µM (not active)	> 150 µM (not active)	> 150 µM (not active)	–	–	–
CCn1c(S)nnc1CCNC(=O)c1ccc(Cl)cc1Cl	–	–	–	–	–	AC50 (Cytochrome P450 2C19; read-out: AC50): 10 µM (inconclusive)
CCCCNc1c(-c2ccc(-c3ccc(C(C)=O)cc3)c(OC)c2)nc2cnccn12	5.22 µM (active)	21.1 µM (active)	114 µM (inconclusive)	–	–	–
CC(C)Cc1nnc(NC(=O)c2ccc([N+](=O)[O-])cc2)s1	–	–	–	–	–	AC50 (Cytochrome P450 2C19): inconclusive
CC1CCN(CC(O)COCCC23CC4CC(CC(C4)C2)C3)CC1 (centres undefined)	–	–	–	> 60 µM (not active)	0.164 µM (active)	–
COC(=O)[C@@]1(Cc2ccc(F)cc2)[C@H]2c3cc(C(=O)N(C)C)n(CCSCCO)c3C[C@H]2CN1C(=O)c1ccccc1	–	–	–	–	–	AC50 (Cytochrome P450 2C19; read-out: AC50): 39.8 µM (inconclusive)
O=C(C[n+]1ccc2ccccc2c1)Nc1cc(C(F)(F)F)ccc1Cl	> 150 µM (not active)	> 150 µM (not active)	> 150 µM (not active)	–	–	–

SMILES	EC50 [1]	EC50 (Streptococcus)	EC50 (Streptokinase A)	EC50 [2]	EC50 [3]	also measured
CC(Oc1ccccc1)C(=O)NC1C(=O)N2C1SC(C)(C)C2C(=O)O (centres undefined)	0.11 µM (active)	0.124 µM (active)	–	–	–	–
Cc1ccc(S(=O)(=O)Cn2nnnc2C(C(C)C)N2CCN(c3nc4ccccc4s3)CC2)cc1 (centres undefined)	–	–	–	> 60 µM (inconclusive)	0.532 µM (active)	–
Cc1onc(-c2ccccc2)c1C(=O)NNC(=S)NC(=O)/C=C/c1cccs1	1.02 µM (active)	2.02 µM (active)	–	–	–	–
CCOC(=O)c1c(NC(=O)CSc2nnnn2-c2ccccc2)sc2c1CC(C)(C)NC2(C)C	–	–	–	8.34 µM (active)	0.831 µM (active)	–
Cc1sc(NC(=O)c2ccco2)c(CN2CCN(Cc3ccccc3)CC2)c1C	–	–	–	> 30 µM (not active)	3.39 µM (active)	–
COc1ccc(CNc2ccc(Cl)cc2)cc1Cn1ccnc1	–	–	–	> 60 µM (not active)	0.114 µM (active)	–
COc1ccc(NS(=O)(=O)c2cccc(NC(=O)c3cnccn3)c2)cc1Br	–	–	–	> 60 µM (not active)	1.79 µM (active)	–
N#Cc1c(NC(=O)CSc2nnc(Cc3ccccc3)[nH]2)oc(-c2ccccc2)c1-c1ccccc1	–	–	4.54 µM (active)	–	–	–
COCC1CCN(Cc2c[nH]nc2-c2cc3ccccc3o2)C1 (centres undefined)	–	–	–	> 60 µM (not active)	0.76 µM (active)	–
COC(=O)c1ccc(-c2nc(CN3CCN(Cc4cccc(C)c4)CC3)c(C)o2)cc1	–	–	–	> 60 µM (not active)	0.164 µM (active)	–
O=C(Nc1nc(N2C(=O)c3ccccc3C2=O)n(-c2ccccc2)n1)c1ccc(Cl)cc1	8.84 µM (active)	22.9 µM (active)	> 150 µM (not active)	–	–	–
CC(C)(C)c1ccc(C(=O)Nc2ccc(F)cc2)s1	> 150 µM (not active)	> 150 µM (not active)	> 150 µM (not active)	–	–	–
O=C(Nc1ccc2c(c1)N(S(=O)(=O)c1cccs1)CCC2)c1c(F)cccc1Cl	> 150 µM (not active)	> 150 µM (not active)	> 150 µM (not active)	–	–	–
O=C(NC1CCN(Cc2ccccc2)CC1)c1ccccc1	–	–	–	10.8 µM (active)	0.721 µM (active)	–
CN1CCN(CC(O)COC(c2ccccc2)c2ccccc2)CC1 (centres undefined)	–	–	–	> 30 µM (not active)	1.3 µM (active)	–
C/C(=N\NC(=O)Cc1ccc(Cl)cc1)c1ccccc1O	–	–	–	10.8 µM (active)	2.79 µM (active)	–
COc1cc(/C=N/NC(=O)c2nnn(-c3nonc3N)c2C(C)C)ccc1OCc1ccc(F)cc1	8.61 µM (active)	47 µM (active)	13.4 µM (active)	–	–	–
Cc1nn(Cc2ccc(Cl)cc2Cl)c(Cl)c1/C=N/NC(=O)CNc1cccc(C(F)(F)F)c1	–	–	–	> 60 µM (inconclusive)	2.62 µM (active)	–
C/C(CC(=O)Nc1ccccn1)=N\NC(=O)C(=O)Nc1cccc(Cl)c1C	–	–	–	–	–	AC50 (Cytochrome P450 2C19; read-out: AC50): 11.2 µM (inconclusive)

— ChEMBL document CHEMBL1201862, “PubChem BioAssay data set” (2004)
